According to patent US20100317733A1, “USE OF CIS-EPOXYEICOSANTRIENOIC ACIDS AND INHIBITORS OF SOLUBLE EPOXIDE HYDROLASE TO REDUCE PULMONARY INFILTRATION BY NEUTROPHILS” (THE REGENTS OF THE UNIVERSITY OF CALIFORNIA, priority 2004, published 2010):
Entries after “also recorded” stand apart in the source; their conditions may differ. Each block holds one molecule with its values, some of them ahead of it.

How the values were obtained:
[1] = tested on: cells in BAL from rats exposed to tobacco smoke; test: Bronchoalveolar lavage (BAL) cell counts and differentials in rats exposed to tobacco smoke for 3 days; assay type: in vivo, SH rats; conditions: for % Eosinophils / % Lymphocytes / % Macrophages / % Neutrophils: cell differential in BAL, 3 days, mean ± SE (n = 4)
Source text: Animals. Healthy, 11-week-old male spontaneously hypertensive (“SH”) (SHR/NCrlBR) rats (derived from WKY rats by phenotypic segregation of the hypertensive trait and inbreeding) were purchased from Charles River Laboratories (Portage, Mich.) and quarantined for 1 week prior to exposure to tobacco smoke. Animals were handled in accordance with standards established by the U.S. Animal Welfare Acts set forth in National Institutes of Health guidelines and the University of California, Davis Animal Care and Use Committee. The rats were housed in plastic cages with TEK-Chip pelleted paper bedding (Harlan Teklad, Madison, Wis.) and maintained on a 12 hour light/12 hour dark cycle. All animals had access to water and Laboratory Rodent Diet 5001 purchased from LabDiet (Brentwood, Mo.) ad libitum before, during and after exposures.
Subcutaneous Implantation of EETs for Tobacco Smoke Exposures. Wax formulations containing EETs were implanted subcutaneously 1 day prior to onset of exposure to tobacco smoke. Animals were implanted with the EETs formulation on the day before the first day of exposure. Four animals from the control group and four animals from the tobacco smoke-exposed group were implanted with the EETs formulation. The approach of a single subcutaneous implantation for the 3-day study was selected to minimize stress to animals from anesthesia.
Subcutaneous injection of AUDA-nBE for Tobacco Smoke Exposures. AUDA-nBE (7 mg/1 ml corn oil) was subcutaneously administered in SH rats at a dose of 10 mg/kg bodyweight. The total volume injected was 0.36 to 0.46 ml. Animals were injected with AUDA-nBE each day prior to exposure. Doses of AUDA-nBE used in this study were selected based on results from preliminary pharmacokinetic studies in mice and rats. These doses were selected to provide optimal efficacy and minimal toxicity over a three-day period. Four animals from the control group and four animals from the tobacco smoke-exposed group were injected with AUDA-nBE. Four animals with EETs implants from the control group and four animals with EETs implants from the tobacco smoke-exposed group were injected with AUDA-nBE. In addition, four control animals and four tobacco smoke-exposed animals were injected with corn oil using the same protocol as the AUDA-nBE -injected animals.
Tobacco Smoke Exposure. Rats were exposed to a mixture of sidestream and mainstream cigarette smoke in a smoking apparatus (Teague, S. V. et al., Inhal. Toxicol. 6:79-93 (1994)). The cigarettes were humidified 2R4F research cigarettes (Tobacco Health Research Institute; Lexington, Ky.). An automatic metered puffer was used to smoke the cigarettes under Federal Trade Commission conditions (35 ml puff, 2 sec duration, 1 puff per min). The smoke was collected in a chimney, diluted with filtered air, and delivered to whole-body exposure chambers. The exposures were characterized for three major constituents of cigarette smoke; nicotine, carbon monoxide, and total suspended particulates (TSP). […] Carbon monoxide was measured every 30 minutes, TSP every 2 hours, and nicotine once per day (approximately midway through the exposure period).
Bronchoalveolar Lavage. Established protocols were followed for bronchoalveolar lavage (BAL) of animals (Gossart, S. et al., J. Immunol. 156:1540-1548 (1996)). Eighteen hours after the last exposure to tobacco smoke, animals were anesthetized with an overdose of sodium pentobarbital. The trachea was cannulated and the lung lavaged with one aliquot of Ca^2+/Mg^2+-free phosphate buffered saline (PBS, pH 7.4). The volume of the aliquot was equal to 35 ml/kg body weight (approximately 90% of total lung capacity). The aliquot was instilled into the lungs three times before final collection. The BAL fluid (BALF) was immediately centrifuged at 250×g for 10 min at 4° C. to remove cells. The cell pellet was then resuspended in PBS and the cells counted with a hemocytometer. […]

[2] = Pharmacokinetics in SH rats following subcutaneous administration; assay type: in vivo
Protocol: Equipment. LC-MS-MS analysis was performed using a Micromass Quattro Ultima triple quadrupole tandem mass spectrometer (Micromass, Manchester, UK) equipped with atomospheric pressure ionization source [atomospheric z-spray pressure chemical ionization (APcI) or electrospray ionization (ESI) interface]. The HPLC system consisted of a Waters model 2790 separations module (Waters Corporation, Milford, Mass.) including an autosampler with refrigerated sample compartment and as inline vacuum degasser and Waters model 2487 dual λ absorbance detector (Waters Corporation). An XTerra™MS C18 column (30×2.1 mm I. D., 3.5 μm; Waters Corporation) was used with a flow rate of 0.3 mL/min at ambient temperature. Data were manipulated with MassLynx software (Ver. 4.0).
LC-MS-MS conditions. The ESI mass spectrometer was operated in the positive ion mode with a capillary voltage at 1.0 kV. Cone gas (N2) and desolvation gas (N2) were maintained at flow rates of 130 and 630 L/h, respectively. The source and the desolvation temperature were set at 100° C. and 300° C., respectively. […] Quantitative analysis was performed in the multiple reaction monitoring (MRM) mode with a dwell time of 300 ms. Ultra pure argon (99.9999%) was used as a collision gas at a pressure of 2.5 milli-torr for collision-induced dissociation (CID). […]
Pharmacokinetics analysis. […] AUCt was calculated by the linear/log trapezoidal rule.

[3] = tested on: tobacco smoke-induced inflammation in the lungs of rats; conditions: Smith 2002; cited from earlier work
[4] = target: T1, sEH (Homo sapiens, UniProt P34913); test: Inhibition of soluble epoxide hydrolase (sEH); assay type: biochemical
T1 sequence (P34913 1-555): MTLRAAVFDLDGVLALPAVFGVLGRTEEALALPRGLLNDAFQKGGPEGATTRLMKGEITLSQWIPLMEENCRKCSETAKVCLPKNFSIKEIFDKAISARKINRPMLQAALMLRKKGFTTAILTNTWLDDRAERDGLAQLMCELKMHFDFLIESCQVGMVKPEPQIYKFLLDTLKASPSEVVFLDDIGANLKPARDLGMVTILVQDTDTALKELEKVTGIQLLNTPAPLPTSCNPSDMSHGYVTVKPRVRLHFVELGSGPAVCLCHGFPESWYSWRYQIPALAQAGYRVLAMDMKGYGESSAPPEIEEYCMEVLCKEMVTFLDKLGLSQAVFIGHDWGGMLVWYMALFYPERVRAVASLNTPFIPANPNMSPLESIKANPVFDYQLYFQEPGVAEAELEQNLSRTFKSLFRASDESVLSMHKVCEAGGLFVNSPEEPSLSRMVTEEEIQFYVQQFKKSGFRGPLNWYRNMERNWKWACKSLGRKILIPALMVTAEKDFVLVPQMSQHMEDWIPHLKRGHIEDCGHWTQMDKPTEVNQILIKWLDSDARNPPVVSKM
Source text: The enzyme also can be detected based on the binding of specific ligands to the catalytic site which either immobilize the enzyme or label it with a probe such as dansyl, fluoracein, luciferase, green fluorescent protein or other reagent.
The assays are normally carried out with a recombinant enzyme following affinity purification.

[5] = Metabolic stability (stated, no method)

- metabolism of the prodrug ([2]; subcutaneous administration): metabolized to AUDA
Structure (SMILES): CCCCOC(=O)CCCCCCCCCCCNC(=O)NC12CC3CC(CC(C3)C1)C2 [AUDA-nBE, 12-(3-adamantane-1-yl-ureido)-dodecanoic acid butyl ester]
- % Eosinophils ([1]; filtered air): 0.15 ± 0.10%
- % Lymphocytes ([1]; filtered air): 0.55 ± 0.15%
- % Macrophages ([1]; filtered air): 92.1 ± 1.6%
- % Neutrophils ([1]; filtered air): 7.3 ± 1.8%
- % Eosinophils ([1]; tobacco smoke): 0.10 ± 0.10%
- % Lymphocytes ([1]; tobacco smoke): 0.25 ± 0.10 %
- % Macrophages ([1]; tobacco smoke): 62.9 ± 1.8 %
- % Neutrophils ([1]; tobacco smoke): 36.8 ± 1.6 %
- reduction in the number of neutrophils found in the lungs ([1]; rats, animal model of COPD (tobacco smoke), FIG. 4): ~55%
- total number of cells in BALF ([1]; tobacco smoke 3 days, treatment before exposure, FIG. 2): significantly decreased
- number of BALF macrophages ([1]; tobacco smoke 3 days, treatment before exposure, FIG. 3): significantly decreased; also recorded: significant reductions
- number of BALF neutrophils ([1]; tobacco smoke 3 days, treatment before exposure, FIG. 4): significantly decreased; also recorded: significant reductions
- number of BALF lymphocytes ([1]; tobacco smoke 3 days, treatment before exposure, FIG. 5): decreased the number of BALF lymphocytes to levels not significantly different from filtered air controls; also recorded: significant reductions

Structure (SMILES): CCN1C=CN(CC)C1=C1C2=NC(=C(c3n(CC)cc[n+]3CC)C3=NC(=C(c4n(CC)cc[n+]4CC)c4ccc([n-]4)C(c4n(CC)cc[n+]4CC)=C4C=CC1=N4)C=C3)C=C2.[Cl-].[Cl-].[Cl-].[Cl-].[Cl-].[Mn+3] [AEOL 10150]
- tobacco smoke-induced inflammation in the lungs [3]: decrease

- half-life ([2]; blood, single subcutaneous dose of AUDA-nBE 10 mg/kg): 22 h
Structure (SMILES): O=C(O)CCCCCCCCCCCNC(=O)NC12CC3CC(CC(C3)C1)C2 [AUDA]

- activity as an inhibitor of sEH [4]: particularly high activity
- metabolic stability [5]: metabolically stable
Structure (SMILES): CCCCCCCCCCCCNC(=O)NC12CC3CC(CC(C3)C1)C2 [ADU, N-Adamantyl-N′-dodecyl urea]
